Laboratory results reported in ChEMBL document CHEMBL1133057, “Synthesis and in vitro antibacterial activity of 3-[N-methyl-N-(3-methyl-1,3-thiazolium-2-yl)aminolmethyl cephalosporin derivatives” (2000).
Values after ≈ are worked out from the molar mass of the structure shown.

Legend:
Escherichia coli [1] = experiment: Compound was tested in vitro for its minimum inhibitory concentration by serial 2-fold agar dilution Muller Hinton method against Escherichia coli 1507E; assay type: functional
Streptococcus pyogenes [2] = experiment: Compound was tested in vitro for its minimum inhibitory concentration by serial 2-fold agar dilution Muller Hinton method against Streptococcus pyogenes A 308; assay type: functional
Pseudomonas aeruginosa [3] = experiment: Compound was tested in vitro for its minimum inhibitory concentration by serial 2-fold agar dilution Muller Hinton method against Pseudomonas aeruginosa 1771 M; assay type: functional
Klebsiella aerogenes = experiment: Compound was tested in vitro for its minimum inhibitory concentration by serial 2-fold agar dilution Muller Hinton method against Klebsiella aerogenes 1522 E; assay type: functional
Staphylococcus aureus [4] = experiment: Compound was tested in vitro for its minimum inhibitory concentration by serial 2-fold agar dilution Muller Hinton method against Staphylococcus aureus 285; assay type: functional
Enterobacter cloacae [5] = experiment: Compound was tested in vitro for its minimum inhibitory concentration by serial 2-fold agar dilution Muller Hinton method against Enterobacter cloacae 1321; assay type: functional
Salmonella typhimurium = experiment: Compound was tested in vitro for its minimum inhibitory concentration by serial 2-fold agar dilution Muller Hinton method against Salmonella Typhimurium; assay type: functional, Salmonella enterica subsp. enterica serovar Typhimurium; conditions: Salmonella enterica
Enterobacter cloacae [6] = experiment: Compound was tested in vitro for its minimum inhibitory concentration by serial 2-fold agar dilution Muller Hinton method against Enterobacter cloacae P99; assay type: functional
Escherichia coli [7] = experiment: Compound was tested in vitro for its minimum inhibitory concentration by serial 2-fold agar dilution Muller Hinton method against Escherichia coli O 55; assay type: functional
Staphylococcus aureus [8] = experiment: Compound was tested in vitro for its minimum inhibitory concentration by serial 2-fold agar dilution Muller Hinton method against Staphylococcus aureus 503; assay type: functional
Streptococcus pyogenes [9] = experiment: Compound was tested in vitro for its minimum inhibitory concentration by serial 2-fold agar dilution Muller Hinton method against Streptococcus pyogenes 8b; assay type: functional
Pseudomonas aeruginosa [10] = experiment: Compound was tested in vitro for its minimum inhibitory concentration by serial 2-fold agar dilution Muller Hinton method against Pseudomonas aeruginosa 9027; assay type: functional
Klebsiella oxytoca = experiment: Compound was tested in vitro for its minimum inhibitory concentration by serial 2-fold agar dilution Muller Hinton method against Klebsiella oxytoca 1082 E; assay type: functional
Pseudomonas aeruginosa [11] = experiment: Compound was tested in vitro for its minimum inhibitory concentration by serial 2-fold agar dilution Muller Hinton method against Pseudomonas aeruginosa 1771; assay type: functional
Streptococcus pyogenes [12] = experiment: Compound was tested in vitro for its minimum inhibitory concentration by serial 2-fold agar dilution Muller Hinton method against Streptococcus pyogenes A77; assay type: functional
Pseudomonas aeruginosa [13] = experiment: Compound was tested in vitro for its minimum inhibitory concentration by serial 2-fold agar dilution Muller Hinton method against Pseudomonas aeruginosa 1592 E; assay type: functional
Staphylococcus aureus [14] = experiment: Compound was tested in vitro for its minimum inhibitory concentration by serial 2-fold agar dilution Muller Hinton method against Staphylococcus aureus SG511; assay type: functional
Escherichia coli [15] = experiment: Compound was tested in vitro for its minimum inhibitory concentration by serial 2-fold agar dilution Muller Hinton method against Escherichia coli DC 0; assay type: functional
Escherichia coli [16] = experiment: Compound was tested in vitro for its minimum inhibitory concentration by serial 2-fold agar dilution Muller Hinton method against Escherichia coli TEM; assay type: functional
Escherichia coli [17] = experiment: Compound was tested in vitro for its minimum inhibitory concentration by serial 2-fold agar dilution Muller Hinton method against Escherichia coli DC 2; assay type: functional

SMILES | MIC (Escherichia coli [1]) [µg/mL] | MIC (Streptococcus pyogenes [2]) [µg/mL] | MIC (Pseudomonas aeruginosa [3]) [µg/mL] | MIC (Klebsiella aerogenes) [µg/mL] | MIC (Staphylococcus aureus [4]) [µg/mL] | MIC (Enterobacter cloacae [5]) [µg/mL] | MIC (Salmonella typhimurium) [µg/mL] | MIC (Enterobacter cloacae [6]) [µg/mL] | MIC (Escherichia coli [7]) [µg/mL] | MIC (Staphylococcus aureus [8]) [µg/mL] | MIC (Streptococcus pyogenes [9]) [µg/mL] | MIC (Pseudomonas aeruginosa [10]) [µg/mL] | MIC (Klebsiella oxytoca) [µg/mL] | MIC (Pseudomonas aeruginosa [11]) [µg/mL] | MIC (Streptococcus pyogenes [12]) [µg/mL] | MIC (Pseudomonas aeruginosa [13]) [µg/mL] | MIC (Staphylococcus aureus [14]) [µg/mL] | MIC (Escherichia coli [15]) [µg/mL] | MIC (Escherichia coli [16]) [µg/mL] | MIC (Escherichia coli [17]) [µg/mL]
C=CCO/N=C(\C(=O)NC1C(=O)N2C(C(=O)[O-])=C(CN(C)c3sc(C(=O)OCC)c(C)[n+]3C)CSC12)c1csc(N)n1 (stereo not given) | 0.098 (≈ 0.154 µM) | 0.013 (≈ 0.0204 µM) | 0.391 (≈ 0.615 µM) | 0.049 (≈ 0.0771 µM) | 1.56 (≈ 2.46 µM) | 0.025 (≈ 0.0393 µM) | 0.049 (≈ 0.0771 µM) | 25 (≈ 39.3 µM) | 0.025 (≈ 0.0393 µM) | 0.391 (≈ 0.615 µM) | 50 (≈ 78.6 µM) | 25 (≈ 39.3 µM) | 6.25 (≈ 9.83 µM) | 3.12 (≈ 4.92 µM) | 0.013 (≈ 0.0204 µM) | 12.5 (≈ 19.7 µM) | 0.781 (≈ 1.23 µM) | 0.098 (≈ 0.154 µM) | 0.098 (≈ 0.154 µM) | 0.025 (≈ 0.0393 µM)
CCO/N=C(\C(=O)NC1C(=O)N2C(C(=O)[O-])=C(CN(C)c3sc4c([n+]3C)CCCC4)CSC12)c1csc(N)n1 (stereo not given) | 0.195 (≈ 0.33 µM) | 0.013 (≈ 0.022 µM) | 0.391 (≈ 0.661 µM) | 0.098 (≈ 0.166 µM) | 0.781 (≈ 1.32 µM) | 0.049 (≈ 0.0828 µM) | 0.098 (≈ 0.166 µM) | 6.25 (≈ 10.6 µM) | 0.049 (≈ 0.0828 µM) | 0.195 (≈ 0.33 µM) | 25 (≈ 42.2 µM) | 25 (≈ 42.2 µM) | 3.12 (≈ 5.28 µM) | 6.25 (≈ 10.6 µM) | 0.007 (≈ 0.0118 µM) | 25 (≈ 42.2 µM) | 0.391 (≈ 0.661 µM) | 0.098 (≈ 0.166 µM) | 0.195 (≈ 0.33 µM) | 0.025 (≈ 0.0422 µM)
CO/N=C(\C(=O)NC1C(=O)N2C(C(=O)[O-])=C(CN(C)c3scc(C)[n+]3C)CSC12)c1csc(N)n1 (stereo not given) | 0.049 (≈ 0.0911 µM) | 0.013 (≈ 0.0242 µM) | 1.56 (≈ 2.91 µM) | 0.049 (≈ 0.0911 µM) | 1.56 (≈ 2.91 µM) | 0.013 (≈ 0.0242 µM) | 0.049 (≈ 0.0911 µM) | 25 (≈ 46.5 µM) | 0.025 (≈ 0.0465 µM) | 0.781 (≈ 1.45 µM) | > 100 | 25 (≈ 46.5 µM) | 6.25 (≈ 11.6 µM) | 12.5 (≈ 23.2 µM) | 0.004 (≈ 0.00744 µM) | 25 (≈ 46.5 µM) | 0.781 (≈ 1.45 µM) | 0.049 (≈ 0.0911 µM) | 0.049 (≈ 0.0911 µM) | 0.049 (≈ 0.0911 µM)
